Laboratory results taken from ChEMBL document CHEMBL4033758, “Systematic Data Mining Reveals Synergistic H3R/MCHR1 Ligands” (ACS Med Chem Lett, 2017).

Molecular target: Histamine H3 receptor (Homo sapiens, UniProt Q9Y5N1)
Assay: Displacement of [3H]-N-alpha-methylhistamine from human H3R expressed in HEK293 cell membranes after 90 mins by liquid scintillation counting analysis

Chain of Histamine H3 receptor (Q9Y5N1 whole entry): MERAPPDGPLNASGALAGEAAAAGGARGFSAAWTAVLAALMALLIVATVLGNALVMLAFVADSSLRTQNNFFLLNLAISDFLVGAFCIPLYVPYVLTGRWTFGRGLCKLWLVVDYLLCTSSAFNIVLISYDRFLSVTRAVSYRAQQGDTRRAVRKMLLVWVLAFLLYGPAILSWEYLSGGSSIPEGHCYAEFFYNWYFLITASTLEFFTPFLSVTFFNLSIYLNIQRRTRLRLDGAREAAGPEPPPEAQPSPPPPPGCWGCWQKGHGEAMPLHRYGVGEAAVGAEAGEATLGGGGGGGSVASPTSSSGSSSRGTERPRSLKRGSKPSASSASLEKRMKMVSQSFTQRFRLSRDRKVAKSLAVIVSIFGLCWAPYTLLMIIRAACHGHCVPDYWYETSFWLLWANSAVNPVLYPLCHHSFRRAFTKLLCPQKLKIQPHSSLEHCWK

SMILES	Ki [nM]
CCN1CCN(c2cc(C)c3cc(NC(=O)/C=C/c4ccc(OC)cc4)ccc3n2)CC1	10.6
COc1cc(-n2cnc3cc(-c4ccc(Cl)cc4)sc3c2=O)ccc1OCCN1CCCC1	208
O=c1cc(OCc2ccc(F)cc2)ccn1-c1ccc(OCCN2CCCC2)cc1	517
